The text below walks through data of article PMC6656724 (Communications Biology, 2019).

In brackets after ≈: the same amount, converted by molar mass. Like-named read-outs stand apart in the source and are kept apart here.

The nature of data set [1]: Stability in mouse hepatic microsomes. The settings on record: for half-life at 1 µM: mouse, microsomes.
Description: 3.6.3 Compound stability in mouse hepatic microsomes and rat hepatocytes
A microsomal stability assay was performed as described in the BioFocus Standard
Operating Procedure ADME-SOP-83, using pooled hepatic mouse
Test and control compounds (midazolam,
dextromethorphan), were prepared in DMSO and incubated at an initial concentration
in the presence of the cofactor, NADPH (1 mM). Aliquots were removed at 0, 5, 10,
20 and 40 minutes for termination of reactions and compound extraction with ACN
containing an analytical internal standard. Samples were centrifuged and the
supernatant fractions analysed for parent compound by mass spectrometry (LC-
MS/MS). The amount of compound remaining (expressed as %) was determined from
the MS response in each sample relative to that in the T = 0 samples (normalised for
internal standard). Ln plots of the % remaining were used to determine the half-life
the slope of the Ln % remaining vs time curve. The in vitro intrinsic clearance Clint
The target of data set [2] is T1, PfKMO (Pseudomonas fluorescens, UniProt Q84HF5, C252S/C461S).
T1 construct: made in house; host or cells: E. coli BL21 (DE3)
T1 sequence (Q84HF5 whole entry C252S/C461S): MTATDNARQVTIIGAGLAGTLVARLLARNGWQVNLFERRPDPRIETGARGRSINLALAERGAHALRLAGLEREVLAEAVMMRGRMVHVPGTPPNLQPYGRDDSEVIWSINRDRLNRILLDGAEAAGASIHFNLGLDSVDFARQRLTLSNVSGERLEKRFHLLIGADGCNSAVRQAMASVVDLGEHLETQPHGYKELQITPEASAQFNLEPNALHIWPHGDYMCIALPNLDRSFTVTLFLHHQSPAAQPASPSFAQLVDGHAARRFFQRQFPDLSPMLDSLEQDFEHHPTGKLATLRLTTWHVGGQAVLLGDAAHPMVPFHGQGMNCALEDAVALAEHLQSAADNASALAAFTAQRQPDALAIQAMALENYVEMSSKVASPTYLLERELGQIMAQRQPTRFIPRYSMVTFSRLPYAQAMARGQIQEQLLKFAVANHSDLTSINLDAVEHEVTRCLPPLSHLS
The data set is described as follows: Stopped-flow reduction of flavin cofactor by NADPH. The format is biochemical. To be noted: PfKMO with saturating ligand, 2 mM NADPH, 25 °C, anaerobic. As for the experimental part: The reduction rate of the flavin cofactor by NADPH was measured using a stopped-flow spectrophotometer (Applied Photophysics Ltd), which was housed in an anaerobic glovebox (Belle Technology). […] The reduction of the flavin was monitored by the decrease in the absorbance of the flavin at 450 nm and transients were fitted to either double or triple exponentials.
Supplementary Figure 13. Reduction of flavin cofactor by NADPH in the presence and absence of ligands. Anaerobic mixtures of 10 µM PfKMO with or without ligand were mixed against anaerobic 2 mM NADPH on a stopped-flow spectrophotometer at 25℃. a, 10 µM PfKMO mixed with 2 mM NADPH; b, 10 µM

The target in data set [3] is T1, PfKMO. As to the kind of experiment: biochemical. The settings on record: substrates of PfKMO. On the procedure: saturating concentrations of the L-KYN and NADPH substrates. Data are plotted […]
(§1) consumption of NADPH at 340 nm upon addition of enzyme via a Cary 50 UV-Vis spectrophotometer (Agilent Technologies). Rates were determined from linear regression fits to the initial linear portion of the curves. All measurements were performed in triplicate. The IC50 values for inhibitors were obtained by plotting the percentage inhibition versus the inhibitor concentration and fitting to the Morrison equation16 (equation 1) using Origin 9.0 Software (OriginLab, Northampton, MA).
E + I + K!"" − E + I + K!"" ! − 4[E][I] where v0 is the enzyme activity without inhibitor, vi is the enzyme activity with ligand concentration [I], [E] is the enzyme concentration, [I] is the inhibitor concentration, K!"" is the apparent inhibition constant and IC = K!"" + [!] . If K!"" ≫ [!], IC ≈ […]
where Ki is the inhibition constant, [S] is the substrate concentration used in the assay and Km is the Michaelis-Menten constant17. […]
between Ki and Ki apparent values, as the conditions for measuring IC50 are different, Ki values can be used to compare with other reported KMO inhibitors.
Steady-state kinetic parameters for PfKMO were calculated by measuring initial rates […]
the observed rate of turnover (v) versus the varied substrate concentration were fitted to equation 2 using Origin 9.0 Software (OriginLab, Northampton, MA).
A B + K!! B + K!! A + K!!K!! where v is the initial rate of activity, Vmax is the maximum velocitie of the reaction, [A] and [B] are the substrate concentration, K!! and K!! are the Michaelis-Menten constant for different substrate and K!! is the inhibition (binding) constant of substrate A to the free enzyme while forming transitory complexes.18
Product inhibition studies were carried out by measuring reaction rates at varying […]
one substrate and varying concentrations of the other substrate. Inhibition studies with target compounds were carried out by measuring reaction rates at varying inhibitor concentrations at saturating concentrations of one substrate and varying concentrations of the other substrate. […]
were used to distinguish between different types of inhibition. The data were fitted to a straight line defined by the Lineweaver-Burke equation (equation 4), with the y intercept providing 1/Vmax and the x intercept giving -1/Km. […]

The next data set addresses T2, Homo sapiens KMO (HsKMO) (Homo sapiens, UniProt O15229).
T2 construct: GST; made in house
As to the kind of experiment: KMO inhibition assay, NADPH oxidation at 340 nm (HsKMO). In kind it is biochemical.
Description: (§2) A combination of ligand- and structural-based virtual screening approaches (see supporting information for details) was used to identify an initial library of >1000 compounds that may be suitable as potential KMO inhibitors. These compounds were screened for inhibition of Pseudomonas fluorescens KMO (PfKMO) and Homo sapiens KMO (HsKMO) using high-throughput assays by monitoring the time-dependent oxidation of NADPH at 340 nm[23].
(§3) Small-molecule compounds were supplied by Biofocus (Charles River Laboratories International Inc., MA, USA), which were identified in silico as potential inhibitors (further details are described in the Supplementary Methods). Initial inhibition assays were performed against Pseudomonas fluorescens KMO (PfKMO) and Homo sapiens KMO (HsKMO) by monitoring the time-dependent absorbance change of NADPH at 340 nm. Purified KMO protein (200 nM) was incubated in 100 µL reaction buffer (20 mM potassium phosphate pH 8.0, 7 mM 2-mercaptoethanol) containing 100 μM NADPH, 100 μM L-Kyn and 20 μM potential inhibitors in 96-well plates. […] The inhibitors identified in the initial screens were validated and re-assayed individually in a 1 cm path-length quartz micro cuvette. […] Suppliers for target inhibitor compounds are listed in Supplementary Table 11.
Supplementary Figure 1. Examples of inhibition data used to generate IC50 values for selected KMO inhibitors.
NADPH (100µM) were added into reaction buffer (HsKMO: 20mM potassium phosphate pH 8.0, 7 mM 2-mercaptoethanol; PfKMO: 20 mM HEPES, 10mM sodium acetate, pH 7.5, 2mM DTT). The reaction was initiated by the addition of KMO enzyme (HsKMO: 0.5µM; PfKMO: 0.1 µM). KMO activity was measured in the presence of a range of inhibitor concentrations. […]
(§4) 3.5 Steady-state enzymatic assays.
(§5) Initial screening assays and determination of IC50 values for each potential inhibitor compound were carried out using either 0.1 µM PfKMO or 0.5 µM HsKMO at fixed […]
(§6) (HsKMO: 20 mM potassium phosphate pH 8.0, 7 mM 2-mercaptoethanol; PfKMO:
(§7) 20 mM HEPES, 10 mM sodium acetate, pH 7.5, 2 mM DTT). KMO activity was measured in the presence of a range of inhibitor concentrations by monitoring the […]
as §1
E + I + K!"" − E + I + K!"" ! − 4[E][I] where v0 is the enzyme activity without inhibitor, vi is the enzyme activity with ligand

A short description of data set [4]: Mouse brain penetration study. To be noted: mouse. In kind it is in vivo, female C57BL6 mice. As for the experimental part:
Inhibitor 1 (and prodrugs 1a, 1b, 1c and 1d) was dosed as a bolus solution intravenously at 1 mg free base/kg (dose volume: 5 mL/kg; dose vehicle: 5% DMSO; 95% saline (inhibitor 1) or 5% DMSO; 40% PEG400; 55% MilliQ H2O (prodrugs 1a, 1b, 1c and 1d)) to female C57BL6 mice (n = 6). At 5 min and 60 min following intravenous bolus injection of test compound, mice (n = 3/timepoint) were placed under terminal anaesthesia with isofluorane. A blood sample was taken by cardiac puncture, the […] decapitated and the brain removed. Brain weight was noted and each brain homogenised with two volumes of methanol (2 mL/g brain). Each blood sample was diluted with distilled water (1:10). Diluted blood and the brain homogenates were then stored frozen until preparation and analysis by UPLC-MS/MS. For each mouse at each timepoint for 1, the concentration in brain (ng/g) was divided by the concentration in blood (ng/mL) to give a brain:blood ratio. The mean value obtained was quoted. For prodrugs 1a to 1d, only the concentration of 1 in blood (ng/mL) and brain (ng/g) was reported.
A rapid and sensitive ultra-performance chromatography/tandem mass spectrometry (UPLC-MS/MS) method was developed and validated for the determination of inhibitor 1 and prodrug 1b (rat only). Chromatographic analysis was conducted on a Waters Acquity™ UPLC system. Chromatographic separation was performed with an Acquity™ UPLC BEH C18 column (50 × 2.1 mm, 1.7 µm, 130Å; Waters Corp.) maintained at 40 °C in a column oven. The mobile phase consisted of water with 0.01% formic acid and ACN with 0.01 % formic acid and it was delivered at a flow rate of 0.6 mL/min under gradient eluent conditions within an analysis cycle time of 3 min. The mass detection was conducted on a Waters Xevo™ TQs mass spectrometer equipped with a ScanWave™ technology. Quantitation of the analyte was performed in electrospray positive ionisation mode (ESI^+) using multiple reaction monitoring. The optimised fragmentation transition was m/z = 270.17 → 196.19 (mouse) or m/z = 270.17 → 223.76 (rat) for inhibitor 1 and m/z = 297.83 → 195.74 for prodrug 1b (rat).
Sample extraction for blood and brain homogenate was by protein precipitation (1:3 or 1:6) using ACN containing suitable internal standard. Extracts were vortexed followed by centrifugation (2800 rpm for 10 min). An aliquot of each supernatant was then diluted two-fold in distilled water ready for analysis by UPLC-MS/MS.
The weighted 1/x^2 calibration line was linear in the dynamic range of 1–5000 ng/mL for inhibitor 1 and 1–1000 ng/mL for prodrug 1b with a correlation coefficient (r^2) > 0.99 (inhibitor 1) or 0.98 (prodrug 1b). The quality control samples (QC) were prepared by using the same spiking scheme as the calibration samples and up to four different target concentration brain levels: 2 ng/mL (LQC), 40 ng/mL (MQC), 100 ng/mL (HQC) and 2000 ng/mL. Data collection, peak integration and calculations were performed using MassLynx software, version 2.1.

Data set [5] has as its target T3, Pseudomonas fluorescens KMO (PfKMO) (Pseudomonas fluorescens, UniProt Q84HF5, C252S/C461S).
T3 construct: made in house; host or cells: E. coli BL21 (DE3)
The data set is described as follows: biochemical.
Description: as §2, §3
Supplementary Figure 1. Examples of inhibition data used to generate IC50 values for selected KMO inhibitors. Fixed concentration of L -KYN (200 µM) and NADPH (100µM) were added into reaction buffer (HsKMO: 20mM potassium phosphate pH 8.0, 7 mM 2-mercaptoethanol; PfKMO: 20 mM HEPES, 10mM sodium acetate, pH 7.5, 2mM DTT). The reaction was initiated by the addition of KMO enzyme (HsKMO: 0.5µM; PfKMO: 0.1 µM). KMO activity was measured in the presence of a range of inhibitor concentrations. […]
as §4, §5, §6, §7
consumption of NADPH at 340 nm upon addition of enzyme via a Cary 50 UV-Vis spectrophotometer (Agilent Technologies). Rates were determined from linear regression fits to the initial linear portion of the curves. All measurements were performed in triplicate. The IC50 values for inhibitors were obtained by plotting the percentage inhibition versus the inhibitor concentration and fitting to the Morrison equation16 (equation 1) using Origin 9.0 Software (OriginLab, Northampton, MA). […]

Data set [6] in a line: Kinetic solubility in PBS, pH 7.4 (2% DMSO). In kind it is physicochemical. To be noted: PBS with 2% DMSO, pH 7.4, aqueous buffer, kinetic from dmso stock, PBS, pH 7.4 (2% DMSO).
The mark [7] stands for this setting: Half-life Mean, mouse hepatic microsomes.
The mark [8] stands for this setting: Half-life n=1, mouse hepatic microsomes.
The mark [9] stands for this setting: Half-life n=2, mouse hepatic microsomes.
[10] abbreviates: 1 mg/kg i.v., 5 min, single mice, analyte inhibitor 1 (also after prodrugs) or 1h.

T3 sequence (Q84HF5 whole entry C252S/C461S): as above
T2 sequence (O15229 whole entry): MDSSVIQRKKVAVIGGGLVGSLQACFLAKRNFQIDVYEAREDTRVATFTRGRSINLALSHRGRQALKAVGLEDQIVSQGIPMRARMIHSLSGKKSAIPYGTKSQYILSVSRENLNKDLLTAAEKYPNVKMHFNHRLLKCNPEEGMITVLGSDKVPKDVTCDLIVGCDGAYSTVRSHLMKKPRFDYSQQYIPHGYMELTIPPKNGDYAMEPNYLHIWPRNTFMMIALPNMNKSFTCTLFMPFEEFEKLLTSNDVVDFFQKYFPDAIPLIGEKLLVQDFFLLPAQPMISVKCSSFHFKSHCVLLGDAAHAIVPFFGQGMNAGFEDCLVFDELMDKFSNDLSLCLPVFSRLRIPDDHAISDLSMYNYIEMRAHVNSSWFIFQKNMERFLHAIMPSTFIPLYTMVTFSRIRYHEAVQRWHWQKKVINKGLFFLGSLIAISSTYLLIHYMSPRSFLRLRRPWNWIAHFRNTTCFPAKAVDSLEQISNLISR

On to `Cc1ncc2n1-c1ccc(Cl)cc1C(c1ccccc1F)=NC2` [Midazolam, reference compound], for which the Mean intrinsic clearance in data set [1] (mouse hepatic microsomes) is > 554 µL/min/mg microsome protein. The half-life at 1 µM in data set [1] (setting [7]), in data set [1] (setting [8]) and in data set [1] (setting [9]) was below 5 min in each case.

As for `COc1ccc2c(c1)[C@]13CCCC[C@@H]1[C@H](C2)N(C)CC3` [Dextromethorphan, reference compound], in data set [1] (mouse hepatic microsomes), the Mean intrinsic clearance was 97 µL/min/mg microsome protein. Besides, the half-life (commonly the time in which the quantity being followed falls by half) at 1 µM in data set [1] (setting [7]) was 29 min; in data set [1] (setting [8]), 28 min; in data set [1] (setting [9]), 29 min.

Consider `Nc1ccccc1C(=O)C[C@H](N)C(=O)O` [L-KYN, reference compound], for which the “Reduction rate of flavin cofactor” value at PfKMO [2] came to 339 ± 16.6 s⁻¹. Further, the Michaelis-Menten constant (Km) (usually the concentration of substrate that gives half-maximal velocity) on PfKMO [3] is 12.1 ± 1.4 µM.

`Cc1cc2c(c(C)c1Cl)N(CC(=O)OC(C)(C)C)C(=O)CO2` [1d]: the figures for the concentration for half-maximal inhibition (IC50) (on Homo sapiens KMO (HsKMO); in data set [5]) were above 300 µM and around 200 µM, respectively. The In blood result in data set [4] (setting [10]) is “≤ LLoQ”. The In brain result is reported as “≤ LLoQ” in data set [4] (setting [10]) and “≤ LLoQ” in data set [4] (1 mg/kg i.v., 60 min, single mice, analyte inhibitor 1 (also after prodrugs) or 1h). The “Release of 1 in blood and brain” value in data set [4] (prodrug 1 mg/kg i.v. bolus) is “undetectable”.

With `COC(=O)[C@H]1[C@H]2C[C@@H]3c4[nH]c5cc(OC)ccc5c4CCN3C[C@H]2C[C@@H](OC(=O)c2cc(OC)c(OC)c(OC)c2)[C@@H]1OC` [Reserpine, reference compound], the solubility at 2 h in data set [6] (read-out: Solubility Mean), in data set [6] (read-out: Solubility n=1) and in data set [6] (read-out: Solubility n=2) was 9 µM (≈ 5.48 µg/mL) each time.

Turning to `O=C(O)c1ccc(-c2cccc(Cl)c2)o1` [compound 17, 5-(3-chlorophenyl) furan-2-carboxylic acid], the IC50 (commonly the concentration that inhibits the measured activity by half) was 442 µM at Homo sapiens KMO (HsKMO) and 15.9 ± 0.8 µM in data set [5].

Consider `O=C(O)[C@@H]1C[C@H]1C(=O)c1ccc(Cl)c(Cl)c1` [UPF648, reference compound], for which the IC50 at Homo sapiens KMO (HsKMO) was 0.06 µM; in data set [5] it was 0.12 ± 0.03 µM.

Consider `Cc1cc2c(c(C)c1Cl)N(CC(=O)N(C)C)C(=O)CO2` [1e], for which the IC50 is around 300 µM at Homo sapiens KMO (HsKMO) and above 300 µM in data set [5].

With `NC(=O)C1=CN([C@@H]2O[C@H](COP(=O)(O)OP(=O)(O)OC[C@H]3O[C@@H](n4cnc5c(N)ncnc54)[C@H](OP(=O)(O)O)[C@@H]3O)[C@@H](O)[C@H]2O)C=CC1` [NADPH, reference compound], the Km on PfKMO [3] (read-out: Km) turned out to be 16.9 ± 1.5 µM.

Take `CNC(=O)CN1C(=O)COc2cc(C)c(Cl)c(C)c21` [1f]: the IC50 (at Homo sapiens KMO (HsKMO); in data set [5]) was above 300 µM in each case.

In the case of `O=C(Nc1ccccc1C(=O)O)c1ccc(-c2ccc(Cl)cc2Cl)o1` [compound 10, 2-(5-(2,4-dichlorophenyl)furan-2-carboxamido)benzoic acid], the IC50 on Homo sapiens KMO (HsKMO) is 1.6 µM; in data set [5], 3 ± 0.1 µM.
